Measured values taken from US6632816B1, “Aromatic derivatives as HIV aspartyl protease inhibitors” (Pharmacor Inc., priority 2002, dated 2003).

Biological target: HIV protease (Human immunodeficiency virus type 1 group M subtype B, UniProt P04585)
Experiment: biochemical
Excerpt: Enzymatic Assay for Determining the Inhibition Constant (Ki) of Synthetic Compounds Targeting the HIV Protease
This is a fluorometric assay based on the cleavage by protease of a substrate carrying a donor group (EDANS) and an acceptor group (DABCYL) on each side of the cleavage site, interacting together through fluorescence resonance energy transfer (FRET) as described by Matayoshi et al. (Science 247:954-954, 1990).
After calculation of Vo and Vi, the inhibition constant (Ki) of the compound is determined using the equation of Henderson: [formula]
where Vo=the enzyme's initial velocity
Vi=the enzyme velocity in the presence of the inhibitory compound,
[I]=inhibitor concentration, [S]=substrate concentration,
Km=Michaelis-Menten constant and Kiapp=apparent Ki
Graphs are traced and the Ki determined using GraphPad Prism software v.

Row | SMILES | Ki
1 | CC(C)CN([C@H](CO)CCCCNC(=O)[C@H](Cc1ccc2ccccc2c1)NCC(C)(C)C)S(=O)(=O)c1ccc(N)cc1 [Example 69, (2S,5S)-N-{5-[(4-Amino-benzenesulfonyl)-isobutyl-amino]-6-hydroxy-hexyl}-2-(2,2-dimethyl-propylamino)-3-naphthalen-2-yl-propionamide] | 22 nM
2 | CCCN[C@@H](Cc1cccc2ccccc12)C(=O)NCCC[C@@H](CO)N(CC(C)C)S(=O)(=O)c1ccc(N)cc1 [Example 22, (2S,4S)-N-{4-[(4-Amino-benzenesulfonyl)-isobutyl-amino]-5-hydroxy-pentyl}-3-naphthalen-1-yl-2-propylamino-propionamide] | 2.5 nM
3 | COC(=O)N[C@@H](Cc1ccc2ccccc2c1)C(=O)NCCCC[C@@H](CO)N(CC(C)C)S(=O)(=O)c1ccc(N)cc1 [Example 29, (1S,5S)-(1-{5-[(4-Amino-benzenesulfonyl)-isobutyl-amino]-6-hydroxy-hexylcarbamoyl}-2-naphthalen-2-yl-ethyl)-carbamic Acid Methyl Ester] | 1.2 nM
4 | COCCOC(=O)N[C@@H](Cc1cccc2ccccc12)C(=O)NCCC[C@@H](CO)N(CC(C)C)S(=O)(=O)c1ccc(N)cc1 [Example 17, (1S,4S)-(1-{4-[(4-Amino-benzenesulfonyl)-isobutyl-amino]-5-hydroxy-pentylcarbamoyl}-2-naphthalen-1-yl-ethyl)-carbamic Acid 2-Methoxy-ethyl Ester] | 3.7 nM
5 | CCN[C@@H](Cc1cccc2ccccc12)C(=O)NCCC[C@@H](CO)N(CC(C)C)S(=O)(=O)c1ccc(N)cc1 [Example 26, (2S,4S)-N-{4-[(4-Amino-benzenesulfonyl)-isobutyl-amino]-5-hydroxy-pentyl}-2-ethylamino-3-naphthalen-1-yl-propionamide] | 3 nM
6 | CC(C)CN([C@H](CO)CCCCNC(=O)[C@@H](NC(=O)c1ncccc1O)C(c1ccccc1)c1ccccc1)S(=O)(=O)c1ccc(N)cc1 [Example 108, (1S,5S)-3-Hydroxy-pyridine-2-carboxylic Acid-N-(1-{5-[(4-amino-benzenesulfonyl)-isobutyl-amino]-6-hydroxy-hexylcarbamoyl}-2,2-diphenyl-ethyl)-amide] | < 3.8 nM
7 | CC(C)CN([C@H](CO)CCCCNC(=O)[C@H](Cc1ccc2ccccc2c1)NC(=O)c1cnc[nH]1)S(=O)(=O)c1ccc(F)c(N)c1 [Example 114, (1S,5S)-3H-Imidazole-4-carboxylic Acid (1-{5-[(3-Amino-4-fluoro-benzenesulfonyl)-isobutyl-amino]-6-hydroxy-hexylcarbamoyl}-2-naphthalen-2-yl-ethyl)-amide] | < 3.8 nM
8 | CC(C)CN([C@H](CO)CCCNC(=O)[C@H](Cc1cccc2ccccc12)NC(=O)OCC(F)(F)F)S(=O)(=O)c1ccc(N)cc1 [Example 7, (1S,4S)-(1-{4-[(4-Amino-benzenesulfonyl)-isobutyl-amino]-5-hydroxy-pentylcarbamoyl}-2-naphthalen-1-yl-ethyl)-carbamic Acid 2,2,2-Trifluoro-ethyl Ester] | 4 nM
9 | CC(C)CN([C@H](CO)CCCCNC(=O)[C@@H](N)Cc1ccc2ccccc2c1)S(=O)(=O)c1ccc(N)cc1 [Example 49, (2S,5S)-2-Amino-N-{5-[(4-amino-benzenesulfonyl)-isobutyl-amino]-6-hydroxy-hexyl}-3-naphthalen-2-yl-propionamide] | 1.3 nM
10 | COc1ccc(CC(=O)N[C@@H](Cc2cccc3ccccc23)C(=O)NCCC[C@@H](CO)N(CC(C)C)S(=O)(=O)c2ccc(N)cc2)cc1 [Example 5, (2S,4S)-N-{4-[(4-Amino-benzenesulfonyl)-isobutyl-amino]-5-hydroxy-pentyl}-2-[2-(4-methoxy-phenyl)-acetylamino]-3-naphthalen-1-yl-propionamide] | 11 nM
11 | CC(C)CN([C@H](CO)CCCCNC(=O)[C@@H](NC(=O)c1ccc(O)nc1)C(c1ccccc1)c1ccccc1)S(=O)(=O)c1ccc(N)cc1 [Example 110, (1S,5S)-N-(1-{5-[(4-Amino-benzenesulfonyl)-isobutyl-amino]-6-hydroxy-hexylcarbamoyl}-2,2-diphenyl-ethyl)-6-hydroxy-nicotinamide] | < 3.8 nM
12 | CC(C)CN([C@H](CO)CCCCNC(=O)[C@@H](NC(=O)c1cccc(O)c1)C(c1ccccc1)c1ccccc1)S(=O)(=O)c1ccc(N)cc1 [Example 105, (1S,5S)-N-(1-{5-[(4-Amino-benzenesulfonyl)-isobutyl-amino]-6-hydroxy-hexylcarbamoyl}-2,2-diphenyl-ethyl)-3-hydroxy-benzamide] | < 3.8 nM
13 | CC(C)CN([C@H](CO)CCCNC(=O)[C@H](Cc1cccc2ccccc12)NCC(=O)O)S(=O)(=O)c1ccc(N)cc1 [Example 27, (1S,4S)-(1-{4-[(4-Amino-benzenesulfonyl)-isobutyl-amino]-5-hydroxy-pentylcarbamoyl}-2-naphthalen-1-yl-ethylamino)-acetic Acid] | 2.5 nM
14 | CCCN[C@@H](Cc1ccc2ccccc2c1)C(=O)NCCCC[C@@H](CO)N(CC(C)C)S(=O)(=O)c1ccc(N)cc1 [Example 64, (2S,5S)-N-{5-[(4-Amino-benzenesulfonyl)-isobutyl-amino]-6-hydroxy-hexyl}-3-naphthalen-2-yl-2-propylamino-propionamide] | 4.6 nM
15 | COC(=O)N[C@@H](Cc1ccccc1-c1ccc(OC)cc1)C(=O)NCCC[C@@H](CO)N(CC(C)C)S(=O)(=O)c1ccc(N)cc1 [Example 6, (1S,4S)-[1-{4-[(4-Amino-benzenesulfonyl)-isobutyl-amino]-5-hydroxy-pentylcarbamoyl}-2-(4′-methoxy-biphenyl-2-yl)-ethyl]-carbamic Acid Methyl Ester] | 13 nM
16 | CC(C)CN([C@H](CO)CCCCNC(=O)[C@@H](NC(=O)c1cnccn1)C(c1ccccc1)c1ccccc1)S(=O)(=O)c1ccc(N)cc1 [Example 97, (1S,5S)-Pyrazine-2-carboxylic Acid (1-{5-[(4-Amino-benzenesulfonyl)-isobutyl-amino]-6-hydroxy-hexylcarbamoyl}-2,2-diphenyl-ethyl)-amide] | < 3.8 nM
17 | CC(C)CN([C@H](CO)CCCCNC(=O)[C@H](Cc1ccc2ccccc2c1)NCc1ccccn1)S(=O)(=O)c1ccc(N)cc1 [Example 70, (2S,5S)-N-{5-[(4-Amino-benzenesulfonyl)-isobutyl-amino]-6-hydroxy-hexyl}-3-naphthalen-2-yl-2-[(pyridin-2-ylmethyl)-amino]-propionamide] | 4.9 nM
18 | CC(C)CN([C@H](CO)CCCCNC(=O)[C@@H](N)Cc1ccc2ccccc2c1)S(=O)(=O)c1ccc(F)c(N)c1 [Example 81, (2S,5S)-2-Amino-N-{5-[(3-amino-4-fluoro-benzenesulfonyl)-isobutyl-amino]-6-hydroxy-hexyl}-3-naphthalen-2-yl-propionamide] | < 3.8 nM
19 | COc1cc(C(=O)N[C@H](C(=O)NCCCC[C@@H](CO)N(CC(C)C)S(=O)(=O)c2ccc(N)cc2)C(c2ccccc2)c2ccccc2)ccc1O [Example 106, (1S,5S)-N-(1-{5-[(4-Amino-benzenesulfonyl)-isobutyl-amino]-6-hydroxy-hexylcarbamoyl}-2,2-diphenyl-ethyl)-4-hydroxy-3-methoxy-benzamide] | < 3.8 nM
20 | CC(C)CN([C@H](CO)CCCCNC(=O)[C@H](Cc1ccc2ccccc2c1)NC(=O)OC(C)(C)C)S(=O)(=O)c1ccc(N)c(F)c1 [Example 91, (1S,5S)-(1-{5-[(4-Amino-3-fluoro-benzenesulfonyl)-isobutyl-amino]-6-hydroxy-hexylcarbamoyl}-2-naphthalen-2-yl-ethyl)-carbamic Acid tert-Butyl Ester] | < 3.8 nM
21 | CC(C)CN([C@H](CO)CCCCNC(=O)[C@@H](NC(=O)c1ccc(N)nc1)C(c1ccccc1)c1ccccc1)S(=O)(=O)c1ccc(N)cc1 [Example 109, (1S,5S)-6-Amino-N-(1-{5-[(4-amino-benzenesulfonyl)-isobutyl-amino]-6-hydroxy-hexylcarbamoyl}-2,2-diphenyl-ethyl)-nicotinamide] | < 3.8 nM
22 | CC(C)CN([C@H](CO)CCCCNC(=O)[C@H](Cc1ccc2ccccc2c1)NC(=O)C1CCOC1)S(=O)(=O)c1ccc(F)c(N)c1 (stereo partly drawn) [Example 85, (1S,5S)-Tetrahydro-furan-3-carboxylic Acid (1-{5-[(3-Amino-4-fluoro-benzenesulfonyl)-isobutyl-amino]-6-hydroxy-hexylcarbamoyl}-2-naphthalen-2-yl-ethyl)-amide] | < 3.8 nM
23 | CC(C)CN([C@H](CO)CCCCNC(=O)[C@@H](NC(=O)c1ccc([N+](=O)[O-])c(O)c1)C(c1ccccc1)c1ccccc1)S(=O)(=O)c1ccc(N)cc1 [Example 107, (1S,5S)-N-(1-{5-[(4-Amino-benzenesulfonyl)-isobutyl-amino]-6-hydroxy-hexylcarbamoyl}-2,2-diphenyl-ethyl)-3-hydroxy-4-nitro-benzamide] | < 3.8 nM
24 | CC(C)CN([C@H](CO)CCCNC(=O)[C@H](Cc1cccc2ccccc12)NC(=O)C1CCCC1)S(=O)(=O)c1ccc(N)cc1 [Example 23, (1S,4S)-Cyclopentanecarboxylic Acid (1-{4-[(4-Amino-benzenesulfonyl)-isobutyl-amino]-5-hydroxy-pentylcarbamoyl}-2-naphthalen-1-yl-ethyl)-amide] | 2 nM
25 | CC(C)CN([C@H](CO)CCCNC(=O)[C@@H](NC(=O)OC(C)(C)C)C(c1ccccc1)c1ccccc1)S(=O)(=O)c1ccc(N)cc1 [Example 16, (1S,4S)-(1-{4-[(4-Amino-benzenesulfonyl)-isobutyl-amino]-5-hydroxy-pentylcarbamoyl}-2,2-diphenyl-ethyl)-carbamic Acid tert-Butyl Ester] | 9.3 nM
26 | CC(C)CN([C@H](CO)CCCCNC(=O)[C@H](Cc1ccc2ccccc2c1)NC(=O)c1cccnc1)S(=O)(=O)c1ccc(F)c(N)c1 [Example 83] | < 3.8 nM
27 | CC(C)CN([C@H](CO)CCCCNC(=O)[C@@H](NC(=O)Cc1cccnc1)C(c1ccccc1)c1ccccc1)S(=O)(=O)c1ccc(N)cc1 [Example 99, (2S,5S)-N-{5-[(4-Amino-benzenesulfonyl)-isobutyl-amino]-6-hydroxy-hexyl}-3,3-diphenyl-2-(2-pyridin-3-yl-acetylamino)-propionamide] | < 3.8 nM
